Data published in patent US8846669B2, “Oxazolidinone derivative and medical composition containing same” (Legochem Biosciences, Inc., priority 2011, dated 2014).
≈ marks a conversion by molar mass, not a printed value. Read-outs that look alike come from different tables or passages of the source.

Key:
Assay in all cases: In vitro antibacterial activity, broth microdilution MIC90
Assay type in all cases: cell-based
Staphylococcus aureus = system: Staphylococcus aureus
Experimental: (§1) MIC90 was measured by broth microdilution method based on CLSI standards [reference: Clinical and Laboratory Standards Institute Document. (2000) Methods for Dilution Antimicrobial Susceptibility Test for Bacteria that Grow Aerobically-Fifth Edition: M7-A5. CLSI, Villanova, Pa.].
(§2) Activities of 12 strains including Staphylococcus aureus, Methicillin Resistant Staphylococcus aureus, Staphylococcus epidermidis, Methicillin Resistant Staphylococcus epidermidis, Enterococcus faecalis, Vancomycin Resistant Enterococcus faecalis, Linezolid and Vancomycin Resistant Enterococcus faecalis, Enterococcus faecium, Vancomycin Resistant Enterococcus faecium, Linezolid and Vancomycin Resistant Enterococcus faecium, and Moraxella catarrhalis, were measured, and results are shown in Table 1 below.
(§3) The final concentration of test material in the antibacterial test was from 0.063 μg/mL (minimum) to 128 μg/mL (maximum), and the final concentration of DMSO used as an excipient was 2.5% (V/V). Linezolid represented by Formula B below (manufactured by Pfizer) was used as a control and bacterial activity thereof was compared with those of the test materials.

[1] = system: Vancomycin Resistant Enterococcus faecalis
Experimental: as §1, §2, §3

Moraxella catarrhalis = system: Moraxella catarrhalis
Experimental: as §1, §2, §3

[2] = system: Methicillin Resistant Staphylococcus aureus
Experimental: as §1, §2, §3

[3] = system: Staphylococcus epidermidis
Experimental: as §1, §2, §3

[4] = system: Linezolid and Vancomycin Resistant Enterococcus faecium (strain 11)
Experimental: as §1, §2, §3

[5] = system: Linezolid and Vancomycin Resistant Enterococcus faecium (strain 10)
Experimental: as §1, §2, §3

[6] = system: Linezolid and Vancomycin Resistant Enterococcus faecalis
Experimental: as §1, §2, §3

[7] = system: Vancomycin Resistant Enterococcus faecium
Experimental: as §1, §2, §3

Enterococcus faecalis = system: Enterococcus faecalis
Experimental: as §1, §2, §3

[8] = system: Methicillin Resistant Staphylococcus epidermidis
Experimental: as §1, §2, §3

Enterococcus faecium = system: Enterococcus faecium
Experimental: as §1, §2, §3

[9] = Staphylococcus aureus, strain 1, S. aureus, read-out: MIC90
[10] = Enterococcus faecalis, strain 6, E. faecalis VanA, read-out: MIC90
[11] = Moraxella catarrhalis, strain 12, M. catarrhalis, read-out: MIC90
[12] = Staphylococcus aureus, strain 2, S. aureus MR, read-out: MIC90
[13] = Staphylococcus epidermidis, strain 3, S. epidermidis, read-out: MIC90
[14] = Enterococcus faecium, strain 11, E. faecium VanA LR, read-out: MIC90
[15] = Enterococcus faecium, strain 10, E. faecium VanA LR, read-out: MIC90
[16] = Enterococcus faecalis, strain 7, E. faecalis VanA LR, read-out: MIC90
[17] = Enterococcus faecium, strain 9, E. faecium VanA, read-out: MIC90
[18] = Enterococcus faecalis, strain 5, E. faecalis, read-out: MIC90
[19] = Staphylococcus epidermidis, strain 4, S. epidermidis MR, read-out: MIC90
[20] = Enterococcus faecium, strain 8, E. faecium, read-out: MIC90

SMILES	MIC90 (Staphylococcus aureus; Staphylococcus aureus) [µg/mL]	MIC90 ([1]; Enterococcus faecalis) [µg/mL]	MIC90 (Moraxella catarrhalis; Moraxella catarrhalis) [µg/mL]	MIC90 ([2]; Staphylococcus aureus) [µg/mL]	MIC90 ([3]; Staphylococcus epidermidis) [µg/mL]	MIC90 ([4]; Enterococcus faecium) [µg/mL]	MIC90 ([5]; Enterococcus faecium) [µg/mL]	MIC90 ([6]; Enterococcus faecalis) [µg/mL]	MIC90 ([7]; Enterococcus faecium) [µg/mL]	MIC90 (Enterococcus faecalis; Enterococcus faecalis) [µg/mL]	MIC90 ([8]; Staphylococcus epidermidis) [µg/mL]	MIC90 (Enterococcus faecium; Enterococcus faecium) [µg/mL]	other results
COC(=O)NC[C@H]1CN(c2ccc(-c3ccc(C4=NOCCN4)nc3)c(F)c2)C(=O)O1 [Compound 65]	–	–	–	–	–	–	–	–	–	–	–	–	MIC90 (Staphylococcus aureus; [9]): 0.5 µg/mL (≈ 1.16 µM); MIC90 [1, 10]: 0.5 µg/mL (≈ 1.16 µM); MIC90 (Moraxella catarrhalis; [11]): 2 µg/mL (≈ 4.66 µM); MIC90 [2, 12]: 0.5 µg/mL (≈ 1.16 µM); MIC90 [3, 13]: 0.5 µg/mL (≈ 1.16 µM); MIC90 [4, 14]: 4 µg/mL (≈ 9.32 µM); MIC90 [5, 15]: 4 µg/mL (≈ 9.32 µM); MIC90 [6, 16]: 4 µg/mL (≈ 9.32 µM); MIC90 [7, 17]: 0.5 µg/mL (≈ 1.16 µM); MIC90 (Enterococcus faecalis; [18]): 0.5 µg/mL (≈ 1.16 µM); MIC90 [8, 19]: 1 µg/mL (≈ 2.33 µM); MIC90 (Enterococcus faecium; [20]): 0.5 µg/mL (≈ 1.16 µM)
CC(=O)NC[C@H]1CN(c2ccc(-c3ccc(N4C=NN(C)CC4)nc3)c(F)c2)C(=O)O1 [Compound 3]	0.063 (≈ 0.148 µM)	0.125 (≈ 0.293 µM)	0.25 (≈ 0.586 µM)	0.5 (≈ 1.17 µM)	0.125 (≈ 0.293 µM)	0.5 (≈ 1.17 µM)	0.5 (≈ 1.17 µM)	0.5 (≈ 1.17 µM)	0.125 (≈ 0.293 µM)	0.25 (≈ 0.586 µM)	0.5 (≈ 1.17 µM)	0.063 (≈ 0.148 µM)	antibacterial activity against linezolid-resistant bacteria (in words) ([6]; Enterococcus faecalis and Enterococcus faecium which are resistant to linezolid): very high antibacterial activity
O=C(CO)N1CCN(c2ccc(-c3ccc(N4C[C@H](CNc5ccon5)OC4=O)cc3F)cn2)C=N1 [Compound 41]	–	–	–	–	–	–	–	–	–	–	–	–	MIC90 (Staphylococcus aureus; strain 1, S. aureus): 0.25 µg/mL (≈ 0.505 µM); MIC90 ([1]; strain 6, E. faecalis VanA): 1 µg/mL (≈ 2.02 µM); MIC90 (Moraxella catarrhalis; strain 12, M. catarrhalis): 2 µg/mL (≈ 4.04 µM); MIC90 ([2]; strain 2, S. aureus MR): 0.25 µg/mL (≈ 0.505 µM); MIC90 ([3]; strain 3, S. epidermidis): 0.5 µg/mL (≈ 1.01 µM); MIC90 ([4]; strain 11, E. faecium VanA LR): 4 µg/mL (≈ 8.07 µM); MIC90 ([5]; strain 10, E. faecium VanA LR): 4 µg/mL (≈ 8.07 µM); MIC90 ([6]; strain 7, E. faecalis VanA LR): 2 µg/mL (≈ 4.04 µM); MIC90 ([7]; strain 9, E. faecium VanA): 0.5 µg/mL (≈ 1.01 µM); MIC90 (Enterococcus faecalis; strain 5, E. faecalis): 0.5 µg/mL (≈ 1.01 µM); MIC90 ([8]; strain 4, S. epidermidis MR): 2 µg/mL (≈ 4.04 µM); MIC90 (Enterococcus faecium; strain 8, E. faecium): 0.125 µg/mL (≈ 0.252 µM)
CC(=O)NC[C@H]1CN(c2ccc(-c3ccc(N4C=NN(C(N)=O)CC4)nc3)c(F)c2)C(=O)O1 [Compound 17]	0.125 (≈ 0.274 µM)	0.25 (≈ 0.549 µM)	2 (≈ 4.39 µM)	0.5 (≈ 1.1 µM)	0.25 (≈ 0.549 µM)	2 (≈ 4.39 µM)	2 (≈ 4.39 µM)	1 (≈ 2.2 µM)	0.25 (≈ 0.549 µM)	0.25 (≈ 0.549 µM)	0.5 (≈ 1.1 µM)	0.25 (≈ 0.549 µM)	–
NCC(=O)N1CCN(c2ccc(-c3ccc(N4C[C@H](Cn5ccnn5)OC4=O)cc3F)cn2)C=N1 [Compound 38]	0.125 (≈ 0.261 µM)	0.5 (≈ 1.04 µM)	2 (≈ 4.17 µM)	0.5 (≈ 1.04 µM)	0.5 (≈ 1.04 µM)	4 (≈ 8.34 µM)	4 (≈ 8.34 µM)	4 (≈ 8.34 µM)	0.5 (≈ 1.04 µM)	0.25 (≈ 0.521 µM)	0.5 (≈ 1.04 µM)	0.25 (≈ 0.521 µM)	–
COC(=O)NC[C@H]1CN(c2ccc(-c3ccc(N4C=NN(C(=O)CO)CC4)nc3)c(F)c2)C(=O)O1 [Compound 25]	0.063 (≈ 0.13 µM)	0.5 (≈ 1.03 µM)	4 (≈ 8.22 µM)	0.5 (≈ 1.03 µM)	0.25 (≈ 0.514 µM)	2 (≈ 4.11 µM)	4 (≈ 8.22 µM)	4 (≈ 8.22 µM)	0.5 (≈ 1.03 µM)	0.5 (≈ 1.03 µM)	1 (≈ 2.06 µM)	0.25 (≈ 0.514 µM)	–
CC(=O)NC[C@H]1CN(c2ccc(-c3ccc(C4=NOCCN4C)nc3)c(F)c2)C(=O)O1 [Compound 69]	–	–	–	–	–	–	–	–	–	–	–	–	MIC90 (Staphylococcus aureus; [9]): 0.5 µg/mL (≈ 1.17 µM); MIC90 [1, 10]: 1 µg/mL (≈ 2.34 µM); MIC90 (Moraxella catarrhalis; [11]): 8 µg/mL (≈ 18.7 µM); MIC90 [2, 12]: 2 µg/mL (≈ 4.68 µM); MIC90 [3, 13]: 0.5 µg/mL (≈ 1.17 µM); MIC90 [4, 14]: 4 µg/mL (≈ 9.36 µM); MIC90 [5, 15]: 4 µg/mL (≈ 9.36 µM); MIC90 [6, 16]: 2 µg/mL (≈ 4.68 µM); MIC90 [7, 17]: 1 µg/mL (≈ 2.34 µM); MIC90 (Enterococcus faecalis; [18]): 1 µg/mL (≈ 2.34 µM); MIC90 [8, 19]: 2 µg/mL (≈ 4.68 µM); MIC90 (Enterococcus faecium; [20]): 1 µg/mL (≈ 2.34 µM)
NC(=O)N1CCN(c2ccc(-c3ccc(N4C[C@H](Cn5ccnn5)OC4=O)cc3F)cn2)C=N1 [Compound 33]	0.25 (≈ 0.537 µM)	0.25 (≈ 0.537 µM)	2 (≈ 4.3 µM)	1 (≈ 2.15 µM)	0.25 (≈ 0.537 µM)	2 (≈ 4.3 µM)	2 (≈ 4.3 µM)	2 (≈ 4.3 µM)	0.25 (≈ 0.537 µM)	0.25 (≈ 0.537 µM)	1 (≈ 2.15 µM)	0.125 (≈ 0.269 µM)	–
CNC(=O)N1CCN(c2ccc(-c3ccc(N4C[C@H](CNC(=O)OC)OC4=O)cc3F)cn2)C=N1 [Compound 27]	0.5 (≈ 1.03 µM)	0.5 (≈ 1.03 µM)	4 (≈ 8.24 µM)	2 (≈ 4.12 µM)	1 (≈ 2.06 µM)	2 (≈ 4.12 µM)	2 (≈ 4.12 µM)	4 (≈ 8.24 µM)	0.5 (≈ 1.03 µM)	0.5 (≈ 1.03 µM)	2 (≈ 4.12 µM)	0.25 (≈ 0.515 µM)	–
